# Target: P. falciparum apicoplast DNA polymerase (Pf-apPOL) (Plasmodium falciparum, UniProt Q8ILY1)
# Test: Fluorescence-based high-throughput DNA polymerase assay (molecular beacon), primary screen and dose-response
# Assay type: biochemical
# Summary of the method: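 Single-point screening used 10 µM compound with 20 nM polymerase, 20 nM hairpin substrate and 6 µM dNTPs for 90 min at 25 °C. Confirmatory titrations (2.5–80 µM) followed fluorescence at three times, and IC50 was derived from a fit including a cooperativity term n.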
# [1] = DRC-2, 40', concentration 20 (unit not given)
# [2] = DRC-2, 180', concentration 20 (unit not given)
# [3] = primary screen value of the 186 hits; unit not given; 90 min, 10 µM
# [4] = primary screen value, head "DNA Pol", unit not given; 90 min, 10 µM
# P. falciparum apicoplast DNA polymerase (Pf-apPOL), sequence (Q8ILY1 entry or part of it): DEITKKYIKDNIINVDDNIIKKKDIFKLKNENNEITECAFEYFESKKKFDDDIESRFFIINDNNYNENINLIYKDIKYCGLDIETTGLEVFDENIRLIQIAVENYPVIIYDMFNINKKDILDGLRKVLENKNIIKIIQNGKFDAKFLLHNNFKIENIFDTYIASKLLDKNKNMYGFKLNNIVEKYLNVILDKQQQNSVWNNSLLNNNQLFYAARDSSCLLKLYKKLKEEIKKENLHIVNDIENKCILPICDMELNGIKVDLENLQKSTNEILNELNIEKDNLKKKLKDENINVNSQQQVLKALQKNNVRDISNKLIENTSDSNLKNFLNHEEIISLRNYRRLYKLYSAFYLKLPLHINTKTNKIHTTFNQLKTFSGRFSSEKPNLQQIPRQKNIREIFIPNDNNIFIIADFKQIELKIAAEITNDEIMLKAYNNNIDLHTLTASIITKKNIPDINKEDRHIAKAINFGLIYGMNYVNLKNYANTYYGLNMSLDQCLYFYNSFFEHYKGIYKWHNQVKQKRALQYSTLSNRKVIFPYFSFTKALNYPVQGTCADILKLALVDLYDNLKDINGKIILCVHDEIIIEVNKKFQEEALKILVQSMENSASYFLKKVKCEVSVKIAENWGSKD
compound,measurement,setting,value
Cc1nn(CC(=O)NCCSCc2ccco2)c(C)c1Br [KU0267182],DNA Pol,"186 hits, value of the hit list (primary screen); unit not given; 90 min, 10 µM",72
same,% inhibition Apo pol 10',DRC-1; 10'; concentration 2.5,1.812%
same,% inhibition Apo pol 10',DRC-1; 10'; concentration 5,6.711%
same,% inhibition Apo pol 10',DRC-1; 10'; concentration 10,15.4752%
same,% inhibition Apo pol 10',DRC-1; 10'; concentration 20,17.8463%
same,% inhibition Apo pol 10',DRC-1; 10'; concentration 40,47.0773%
same,% inhibition Apo pol 10',DRC-1; 10'; concentration 80,72.2462%
same,% inhibition Apol 90',DRC-1; 90'; concentration 2.5,-1.178%
same,% inhibition Apol 90',DRC-1; 90'; concentration 5,2.416%
same,% inhibition Apol 90',DRC-1; 90'; concentration 10,7.223%
same,% inhibition Apol 90',DRC-1; 90'; concentration 20,9.063%
same,% inhibition Apol 90',DRC-1; 90'; concentration 40,29.9709%
same,% inhibition Apol 90',DRC-1; 90'; concentration 80,56.479%
same,% inhibition apPOL 180',DRC-1; 180'; concentration 2.5,-4.52%
same,% inhibition apPOL 180',DRC-1; 180'; concentration 5,-1.314%
same,% inhibition apPOL 180',DRC-1; 180'; concentration 10,2.547%
same,% inhibition apPOL 180',DRC-1; 180'; concentration 20,1.732%
same,% inhibition apPOL 180',DRC-1; 180'; concentration 40,16.5888%
same,% inhibition apPOL 180',DRC-1; 180'; concentration 80,39.2205%
same,% inhibition Apo pol 5',"DRC-2, 5', concentration 2.5",6%
same,% inhibition Apo pol 5',"DRC-2, 5', concentration 5",7.46%
same,% inhibition Apo pol 5',"DRC-2, 5', concentration 10",16%
same,% inhibition Apo pol 5',"DRC-2, 5', concentration 20",23%
same,% inhibition Apo pol 5',"DRC-2, 5', concentration 40",43%
same,% inhibition Apo pol 5',"DRC-2, 5', concentration 80",55%
same,% inhibition Apol 40',"DRC-2, 40', concentration 2.5",7.41%
same,% inhibition Apol 40',"DRC-2, 40', concentration 5",7%
same,% inhibition Apol 40',"DRC-2, 40', concentration 10",15%
same,% inhibition Apol 40',"DRC-2, 40', concentration 20",21%
same,% inhibition Apol 40',"DRC-2, 40', concentration 40",45%
same,% inhibition Apol 40',"DRC-2, 40', concentration 80",64%
same,% inhibition ApPOL 90',"DRC-2, 90', concentration 2.5",6%
same,% inhibition ApPOL 90',"DRC-2, 90', concentration 5",4%
same,% inhibition ApPOL 90',"DRC-2, 90', concentration 10",12%
same,% inhibition ApPOL 90',"DRC-2, 90', concentration 20",16%
same,% inhibition ApPOL 90',"DRC-2, 90', concentration 40",39%
same,% inhibition ApPOL 90',"DRC-2, 90', concentration 80",63%
same,% inhibition apPOL 180',"DRC-2, 180', concentration 2.5",0.763%
same,% inhibition apPOL 180',"DRC-2, 180', concentration 5",-0.774%
same,% inhibition apPOL 180',"DRC-2, 180', concentration 10",3.79%
same,% inhibition apPOL 180',"DRC-2, 180', concentration 20",7.41%
same,% inhibition apPOL 180',"DRC-2, 180', concentration 40",27%
same,% inhibition apPOL 180',"DRC-2, 180', concentration 80",55%
same,% inhibition Apo pol 5',DRC-2; 5'; concentration 2.5,6%
same,% inhibition Apo pol 5',DRC-2; 5'; concentration 10,16%
same,% inhibition Apo pol 5',DRC-2; 5'; concentration 80,55%
same,% inhibition Apol 40',DRC-2; 40'; concentration 2.5,7.41%
same,% inhibition ApPOL 90',DRC-2; 90'; concentration 2.5,6%
same,% inhibition ApPOL 90',DRC-2; 90'; concentration 20,16%
same,% inhibition apPOL 180',DRC-2; 180'; concentration 20,7.41%
same,% inhibition apPOL 180',DRC-2; 180'; concentration 80,55%
same,DNA Pol,"primary screen value, 'DNA Pol' only; 90 min, 10 µM",72
CN(C)C1C(c2ccccc2)=C(c2ccccc2)SC(c2ccccc2)C1[N+](=O)[O-] (stereo not shown) [KU0268387],% inhibition Apo pol 10',DRC-1; 10'; concentration 2.5,4.043%
same,% inhibition Apo pol 10',DRC-1; 10'; concentration 5,23.3831%
same,% inhibition Apo pol 10',DRC-1; 10'; concentration 10,45.0315%
same,% inhibition Apo pol 10',DRC-1; 10'; concentration 20,49.4618%
same,% inhibition Apo pol 10',DRC-1; 10'; concentration 40,64.8423%
same,% inhibition Apo pol 10',DRC-1; 10'; concentration 80,77.5449%
same,% inhibition Apol 90',DRC-1; 90'; concentration 2.5,3.398%
same,% inhibition Apol 90',DRC-1; 90'; concentration 5,22.5056%
same,% inhibition Apol 90',DRC-1; 90'; concentration 10,44.0197%
same,% inhibition Apol 90',DRC-1; 90'; concentration 20,52.549%
same,% inhibition Apol 90',DRC-1; 90'; concentration 40,68.5649%
same,% inhibition Apol 90',DRC-1; 90'; concentration 80,83.9893%
same,% inhibition apPOL 180',DRC-1; 180'; concentration 2.5,1.708%
same,% inhibition apPOL 180',DRC-1; 180'; concentration 5,12.7714%
same,% inhibition apPOL 180',DRC-1; 180'; concentration 10,32.8138%
same,% inhibition apPOL 180',DRC-1; 180'; concentration 20,41.7834%
same,% inhibition apPOL 180',DRC-1; 180'; concentration 40,60.315%
same,% inhibition apPOL 180',DRC-1; 180'; concentration 80,80.8354%
same,% inhibition Apol 40',[1],53%
same,% inhibition ApPOL 90',"DRC-2, 90', concentration 20 (unit not given)",53%
same,% inhibition apPOL 180',[2],47%
same,% inhibition Apo pol 5',DRC-2; 5'; concentration 2.5,0.589%
same,% inhibition Apo pol 5',DRC-2; 5'; concentration 5,19%
same,% inhibition Apo pol 5',DRC-2; 5'; concentration 10,32%
same,% inhibition Apo pol 5',DRC-2; 5'; concentration 20,40%
same,% inhibition Apo pol 5',DRC-2; 5'; concentration 40,42%
same,% inhibition Apo pol 5',DRC-2; 5'; concentration 80,47%
same,% inhibition Apo pol 5',DRC-2; 5'; concentration 80 (unit not given),47%
same,% inhibition Apol 40',DRC-2; 40'; concentration 2.5,1.84%
same,% inhibition Apol 40',DRC-2; 40'; concentration 5,25%
same,% inhibition Apol 40',DRC-2; 40'; concentration 10,39%
same,% inhibition Apol 40',DRC-2; 40'; concentration 20,53%
same,% inhibition Apol 40',DRC-2; 40'; concentration 40,60%
same,% inhibition Apol 40',DRC-2; 40'; concentration 80,68%
same,% inhibition ApPOL 90',DRC-2; 90'; concentration 2.5,0.484%
same,% inhibition ApPOL 90',DRC-2; 90'; concentration 5,23%
same,% inhibition ApPOL 90',DRC-2; 90'; concentration 10,38%
same,% inhibition ApPOL 90',DRC-2; 90'; concentration 20,53%
same,% inhibition ApPOL 90',DRC-2; 90'; concentration 40,62%
same,% inhibition ApPOL 90',DRC-2; 90'; concentration 80,71%
same,% inhibition apPOL 180',DRC-2; 180'; concentration 2.5,-3.51%
same,% inhibition apPOL 180',DRC-2; 180'; concentration 5,15%
same,% inhibition apPOL 180',DRC-2; 180'; concentration 10,31%
same,% inhibition apPOL 180',DRC-2; 180'; concentration 20,47%
same,% inhibition apPOL 180',DRC-2; 180'; concentration 40,58%
same,% inhibition apPOL 180',DRC-2; 180'; concentration 80,70%
same,DNA Pol,[3],78
same,DNA Pol,[4],78
CCCCCCCCCCCCCCCCCC(=O)CCN(C)C [KU0271928],% inhibition Apo pol 10',DRC-1; 10'; concentration 2.5,4.376%
same,% inhibition Apo pol 10',DRC-1; 10'; concentration 5,8.002%
same,% inhibition Apo pol 10',DRC-1; 10'; concentration 10,14.7164%
same,% inhibition Apo pol 10',DRC-1; 10'; concentration 20,22.8957%
same,% inhibition Apo pol 10',DRC-1; 10'; concentration 40,29.808%
same,% inhibition Apo pol 10',DRC-1; 10'; concentration 80,46.1524%
same,% inhibition Apol 90',DRC-1; 90'; concentration 2.5,3.047%
same,% inhibition Apol 90',DRC-1; 90'; concentration 5,4.9355%
same,% inhibition Apol 90',DRC-1; 90'; concentration 10,15.0466%
same,% inhibition Apol 90',DRC-1; 90'; concentration 20,24.954%
same,% inhibition Apol 90',DRC-1; 90'; concentration 40,42.2957%
same,% inhibition Apol 90',DRC-1; 90'; concentration 80,71.469%
same,% inhibition apPOL 180',DRC-1; 180'; concentration 2.5,2.105%
same,% inhibition apPOL 180',DRC-1; 180'; concentration 5,0.02519%
same,% inhibition apPOL 180',DRC-1; 180'; concentration 10,10.3787%
same,% inhibition apPOL 180',DRC-1; 180'; concentration 20,23.1469%
same,% inhibition apPOL 180',DRC-1; 180'; concentration 40,44.4373%
same,% inhibition apPOL 180',DRC-1; 180'; concentration 80,80.1406%
same,% inhibition Apol 40',"DRC-2, 40', concentration 5 (unit not given)",4%
same,% inhibition Apol 40',[1],13%
same,% inhibition apPOL 180',"DRC-2, 180', concentration 5 (unit not given)",4%
same,% inhibition apPOL 180',[2],13%
same,% inhibition Apo pol 5',DRC-2; 5'; concentration 2.5,0.736%
same,% inhibition Apo pol 5',DRC-2; 5'; concentration 5,1.37%
same,% inhibition Apo pol 5',DRC-2; 5'; concentration 10,2.68%
same,% inhibition Apo pol 5',DRC-2; 5'; concentration 20,5.52%
same,% inhibition Apo pol 5',DRC-2; 5'; concentration 40,18%
same,% inhibition Apo pol 5',DRC-2; 5'; concentration 80,37%
same,% inhibition Apol 40',DRC-2; 40'; concentration 2.5,2.22%
same,% inhibition Apol 40',DRC-2; 40'; concentration 5,4%
same,% inhibition Apol 40',DRC-2; 40'; concentration 10,4.59%
same,% inhibition Apol 40',DRC-2; 40'; concentration 20,13%
same,% inhibition Apol 40',DRC-2; 40'; concentration 40,28%
same,% inhibition Apol 40',DRC-2; 40'; concentration 80,61%
same,% inhibition ApPOL 90',DRC-2; 90'; concentration 2.5,1.86%
same,% inhibition ApPOL 90',DRC-2; 90'; concentration 5,3.32%
same,% inhibition ApPOL 90',DRC-2; 90'; concentration 10,2.69%
same,% inhibition ApPOL 90',DRC-2; 90'; concentration 20,12%
same,% inhibition ApPOL 90',DRC-2; 90'; concentration 40,30%
same,% inhibition ApPOL 90',DRC-2; 90'; concentration 80,67%
same,% inhibition apPOL 180',DRC-2; 180'; concentration 2.5,1.53%
same,% inhibition apPOL 180',DRC-2; 180'; concentration 5,4%
same,% inhibition apPOL 180',DRC-2; 180'; concentration 10,2.45%
same,% inhibition apPOL 180',DRC-2; 180'; concentration 20,13%
same,% inhibition apPOL 180',DRC-2; 180'; concentration 40,31%
same,% inhibition apPOL 180',DRC-2; 180'; concentration 80,73%
same,DNA Pol,[3],46
same,DNA Pol,[4],46

# — paper PMC9090415, “Discovery of small molecule inhibitors of Plasmodium falciparum apicoplast DNA polymerase” (Journal of Enzyme Inhibition and Medicinal Chemistry, 2022)
